Paper PMC5064435, “Inhibition of endoplasmic reticulum glucosidases is required for in vitro and in vivo dengue antiviral activity by the iminosugar UV-4” (Antiviral Research, 2016)

How the values were obtained:
Assay type in all cases: biochemical
[1] = molecular target: T1, Human lysosome (α-galactosidase) (Homo sapiens, UniProt P06280); assay: enzyme inhibition assay; settings: read-out: IC50 ^a / MON-6d-DGJ
T1 construct: gene GLA
T1 sequence (P06280 32-429): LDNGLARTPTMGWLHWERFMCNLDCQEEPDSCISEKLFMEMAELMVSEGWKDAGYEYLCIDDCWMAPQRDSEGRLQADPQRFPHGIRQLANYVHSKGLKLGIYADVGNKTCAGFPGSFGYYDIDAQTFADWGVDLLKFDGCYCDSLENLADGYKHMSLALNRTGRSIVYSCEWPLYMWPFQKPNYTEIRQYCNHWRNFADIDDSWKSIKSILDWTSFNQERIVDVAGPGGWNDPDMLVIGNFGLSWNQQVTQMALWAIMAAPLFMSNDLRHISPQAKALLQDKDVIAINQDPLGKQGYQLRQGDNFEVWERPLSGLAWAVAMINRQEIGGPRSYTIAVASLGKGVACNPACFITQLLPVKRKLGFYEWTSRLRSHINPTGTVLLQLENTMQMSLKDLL
Text: enzyme inhibition assay on Human lysosome (α-galactosidase)

[2] = molecular target: T2, Rat intestinal isomaltase (Rattus norvegicus, UniProt P23739); assay: enzyme inhibition assay; settings: read-out: IC50 ^a / MON-6d-DGJ
T2 construct: gene Si; native rat intestinal enzyme; isomaltase (N-terminal) subunit of sucrase-isomaltase
Text: enzyme inhibition assay on Rat intestinal isomaltase

Rat intestinal sucrase = molecular target: T3, Rat intestinal sucrase (Rattus norvegicus, UniProt P23739); assay: enzyme inhibition assay; settings: read-out: IC50 ^a / MON-6d-DGJ
T3 construct: gene Si; native rat intestinal enzyme; sucrase (C-terminal) subunit of sucrase-isomaltase
Text: enzyme inhibition assay on Rat intestinal sucrase

Mouse ER α-glucosidase I = molecular target: T4, Mouse ER α-glucosidase I (Mus musculus, UniProt Q80UM7); assay: enzyme inhibition assay, purified enzyme; settings: read-out: IC50 ^a / MON-6d-DGJ
T4 construct: gene Mogs
T4 sequence (Q80UM7 1-834): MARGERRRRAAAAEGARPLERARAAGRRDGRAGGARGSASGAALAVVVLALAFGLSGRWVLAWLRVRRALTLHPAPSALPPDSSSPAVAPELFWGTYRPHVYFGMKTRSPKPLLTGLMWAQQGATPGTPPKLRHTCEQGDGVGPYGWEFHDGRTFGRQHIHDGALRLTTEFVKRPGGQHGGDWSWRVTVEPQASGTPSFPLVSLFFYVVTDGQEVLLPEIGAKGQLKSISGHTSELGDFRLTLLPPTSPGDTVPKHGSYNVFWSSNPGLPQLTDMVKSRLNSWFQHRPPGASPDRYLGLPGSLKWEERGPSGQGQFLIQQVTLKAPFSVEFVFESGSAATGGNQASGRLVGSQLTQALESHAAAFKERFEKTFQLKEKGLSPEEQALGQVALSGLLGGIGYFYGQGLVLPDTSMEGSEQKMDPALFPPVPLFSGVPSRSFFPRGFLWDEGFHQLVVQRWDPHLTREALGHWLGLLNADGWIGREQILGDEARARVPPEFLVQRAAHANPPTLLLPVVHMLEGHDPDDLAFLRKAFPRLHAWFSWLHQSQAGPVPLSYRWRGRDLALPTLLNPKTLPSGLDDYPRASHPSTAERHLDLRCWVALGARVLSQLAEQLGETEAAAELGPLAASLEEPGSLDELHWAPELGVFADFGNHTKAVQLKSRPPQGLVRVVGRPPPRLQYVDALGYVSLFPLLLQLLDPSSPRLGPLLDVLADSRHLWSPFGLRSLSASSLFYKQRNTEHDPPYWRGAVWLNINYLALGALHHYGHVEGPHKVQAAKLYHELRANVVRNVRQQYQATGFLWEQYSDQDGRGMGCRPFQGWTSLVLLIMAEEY
Text: enzyme inhibition assay, purified enzyme on Mouse ER α-glucosidase I

[3] = molecular target: T5, ceramide glucosyltransferase (HL60 glucosyltransferase) (Homo sapiens, UniProt Q16739); assay: enzyme inhibition assay, enzyme isolated from HL60 cells; settings: read-out: IC50 ^a / MON-6d-DGJ
T5 construct: gene UGCG; native enzyme isolated from human promyelocytic HL60 cells
T5 sequence (Q16739 1-394): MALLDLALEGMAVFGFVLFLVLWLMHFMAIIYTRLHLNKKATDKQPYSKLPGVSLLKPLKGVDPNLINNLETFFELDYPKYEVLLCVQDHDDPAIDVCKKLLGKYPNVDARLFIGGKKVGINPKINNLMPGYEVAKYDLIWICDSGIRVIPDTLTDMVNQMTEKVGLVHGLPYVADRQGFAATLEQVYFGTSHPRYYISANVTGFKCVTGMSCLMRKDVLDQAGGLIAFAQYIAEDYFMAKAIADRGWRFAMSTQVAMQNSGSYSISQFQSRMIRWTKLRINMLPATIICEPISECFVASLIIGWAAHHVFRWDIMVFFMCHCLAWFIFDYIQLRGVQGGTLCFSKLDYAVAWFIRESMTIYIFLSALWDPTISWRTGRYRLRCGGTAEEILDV
Text: enzyme inhibition assay, enzyme isolated from HL60 cells on ceramide glucosyltransferase (HL60 glucosyltransferase)

Rat intestinal maltase = molecular target: T6, Rat intestinal maltase; assay: enzyme inhibition assay; settings: IC50 not reached up to maximal dose; read-out: IC50 ^a / MON-6d-DGJ
T6 construct: gene Mgam; native rat intestinal enzyme activity; maltase may be maltase-glucoamylase and/or sucrase-isomaltase
Text: enzyme inhibition assay on Rat intestinal maltase

[4] = molecular target: T7, Mouse ER α-glucosidase II (Mus musculus, UniProt Q8BHN3); assay: enzyme inhibition assay, purified enzyme; settings: read-out: IC50 ^a / MON-6d-DGJ
T7 construct: gene Ganab; with Glucosidase 2 subunit beta
T7 sequence (Q8BHN3 33-944): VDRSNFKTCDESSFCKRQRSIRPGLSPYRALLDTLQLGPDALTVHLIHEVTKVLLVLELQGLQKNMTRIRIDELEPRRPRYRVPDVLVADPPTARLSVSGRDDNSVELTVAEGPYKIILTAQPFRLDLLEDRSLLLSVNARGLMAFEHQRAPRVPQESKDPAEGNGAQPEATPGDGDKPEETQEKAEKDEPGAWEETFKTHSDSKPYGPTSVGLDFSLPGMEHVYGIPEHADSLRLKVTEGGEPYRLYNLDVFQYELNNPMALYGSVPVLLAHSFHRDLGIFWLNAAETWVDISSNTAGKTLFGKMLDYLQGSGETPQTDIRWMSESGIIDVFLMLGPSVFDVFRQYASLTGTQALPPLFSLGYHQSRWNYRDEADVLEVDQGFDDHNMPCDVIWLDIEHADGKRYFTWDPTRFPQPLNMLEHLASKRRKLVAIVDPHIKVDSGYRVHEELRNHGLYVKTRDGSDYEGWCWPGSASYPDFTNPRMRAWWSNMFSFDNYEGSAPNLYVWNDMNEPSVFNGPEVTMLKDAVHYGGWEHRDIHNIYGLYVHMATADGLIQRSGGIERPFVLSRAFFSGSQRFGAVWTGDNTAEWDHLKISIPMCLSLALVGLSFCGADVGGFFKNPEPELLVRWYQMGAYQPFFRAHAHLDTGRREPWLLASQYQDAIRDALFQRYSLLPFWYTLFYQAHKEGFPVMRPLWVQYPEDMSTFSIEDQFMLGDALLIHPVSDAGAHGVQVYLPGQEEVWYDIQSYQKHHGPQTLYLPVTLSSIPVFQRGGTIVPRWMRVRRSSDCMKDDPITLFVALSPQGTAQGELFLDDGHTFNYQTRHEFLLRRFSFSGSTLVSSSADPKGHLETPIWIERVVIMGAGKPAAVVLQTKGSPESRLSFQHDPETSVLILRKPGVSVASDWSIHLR
T7 sequence (O08795 15-521 partner): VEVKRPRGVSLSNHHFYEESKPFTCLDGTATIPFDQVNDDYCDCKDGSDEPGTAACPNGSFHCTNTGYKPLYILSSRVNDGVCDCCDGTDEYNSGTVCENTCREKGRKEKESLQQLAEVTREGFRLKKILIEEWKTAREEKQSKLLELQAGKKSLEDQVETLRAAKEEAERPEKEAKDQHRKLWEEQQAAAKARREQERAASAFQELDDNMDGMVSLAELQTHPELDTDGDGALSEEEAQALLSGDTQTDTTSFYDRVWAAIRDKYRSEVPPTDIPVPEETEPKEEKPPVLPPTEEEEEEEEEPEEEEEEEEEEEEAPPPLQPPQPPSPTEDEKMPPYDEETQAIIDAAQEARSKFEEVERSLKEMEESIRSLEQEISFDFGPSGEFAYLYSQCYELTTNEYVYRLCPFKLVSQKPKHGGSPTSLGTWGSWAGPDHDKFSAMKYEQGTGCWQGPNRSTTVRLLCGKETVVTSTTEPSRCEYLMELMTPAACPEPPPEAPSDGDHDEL
Text: enzyme inhibition assay, purified enzyme on Mouse ER α-glucosidase II

[5] = molecular target: T8, Human lysosome (α-glucosidase) (Homo sapiens, UniProt P10253); assay: enzyme inhibition assay; settings: read-out: IC50 ^a / MON-6d-DGJ
T8 construct: gene GAA
Text: enzyme inhibition assay on Human lysosome (α-glucosidase)

T3 sequence (P23739 1014-1841 limits assumed): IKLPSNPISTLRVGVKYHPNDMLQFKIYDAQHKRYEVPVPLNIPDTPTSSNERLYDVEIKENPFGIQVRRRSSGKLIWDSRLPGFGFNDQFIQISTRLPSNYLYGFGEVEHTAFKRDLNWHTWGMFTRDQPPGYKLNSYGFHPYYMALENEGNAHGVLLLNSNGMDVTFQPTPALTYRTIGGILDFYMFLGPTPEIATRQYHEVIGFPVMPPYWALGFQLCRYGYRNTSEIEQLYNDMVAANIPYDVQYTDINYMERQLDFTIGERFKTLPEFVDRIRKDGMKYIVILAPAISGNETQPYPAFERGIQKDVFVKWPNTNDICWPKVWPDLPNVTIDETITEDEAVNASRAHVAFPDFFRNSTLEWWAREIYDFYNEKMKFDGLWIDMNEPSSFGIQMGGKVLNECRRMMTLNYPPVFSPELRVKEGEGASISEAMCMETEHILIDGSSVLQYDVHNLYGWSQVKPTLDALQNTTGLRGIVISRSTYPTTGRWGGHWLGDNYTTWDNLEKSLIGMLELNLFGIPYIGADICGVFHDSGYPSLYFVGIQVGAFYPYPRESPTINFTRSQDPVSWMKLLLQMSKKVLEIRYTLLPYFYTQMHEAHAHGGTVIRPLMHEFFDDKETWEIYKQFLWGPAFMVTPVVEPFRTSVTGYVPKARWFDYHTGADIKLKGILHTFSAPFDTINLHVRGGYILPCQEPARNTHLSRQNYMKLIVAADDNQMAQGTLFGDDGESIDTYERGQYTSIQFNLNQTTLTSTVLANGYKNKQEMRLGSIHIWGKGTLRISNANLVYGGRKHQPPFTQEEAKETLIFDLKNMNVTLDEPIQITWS
T2 sequence (P23739 1-1013 limits assumed): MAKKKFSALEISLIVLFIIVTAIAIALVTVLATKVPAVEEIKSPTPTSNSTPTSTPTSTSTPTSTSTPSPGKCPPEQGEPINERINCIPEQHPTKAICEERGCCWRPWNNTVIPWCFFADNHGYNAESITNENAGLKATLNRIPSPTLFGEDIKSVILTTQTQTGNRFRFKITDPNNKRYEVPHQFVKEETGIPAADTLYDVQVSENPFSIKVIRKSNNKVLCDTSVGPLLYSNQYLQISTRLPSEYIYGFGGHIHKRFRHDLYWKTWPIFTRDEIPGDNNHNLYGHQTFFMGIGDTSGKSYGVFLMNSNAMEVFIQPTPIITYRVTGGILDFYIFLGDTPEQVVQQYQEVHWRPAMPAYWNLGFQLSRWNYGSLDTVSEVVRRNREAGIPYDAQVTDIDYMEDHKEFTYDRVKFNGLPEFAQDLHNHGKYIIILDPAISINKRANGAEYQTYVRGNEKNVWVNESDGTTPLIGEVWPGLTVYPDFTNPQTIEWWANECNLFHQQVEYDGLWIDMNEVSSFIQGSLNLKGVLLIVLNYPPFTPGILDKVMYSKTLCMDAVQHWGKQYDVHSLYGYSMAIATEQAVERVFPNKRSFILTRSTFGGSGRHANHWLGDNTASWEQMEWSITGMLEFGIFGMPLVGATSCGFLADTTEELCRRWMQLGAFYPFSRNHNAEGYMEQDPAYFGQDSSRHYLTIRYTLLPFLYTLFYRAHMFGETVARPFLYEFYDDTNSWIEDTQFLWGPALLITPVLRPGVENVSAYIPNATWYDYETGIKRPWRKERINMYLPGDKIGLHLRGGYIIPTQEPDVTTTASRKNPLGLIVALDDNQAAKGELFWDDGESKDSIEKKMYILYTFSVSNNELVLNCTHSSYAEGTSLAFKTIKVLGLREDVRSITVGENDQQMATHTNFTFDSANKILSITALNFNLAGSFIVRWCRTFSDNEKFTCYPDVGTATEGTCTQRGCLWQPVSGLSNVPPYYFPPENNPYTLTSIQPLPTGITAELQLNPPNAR

In the case of `COCCCCCCCCCN1C[C@H](O)[C@@H](O)[C@@H](O)[C@H]1C` [MON-6d-DGJ, N-(9′-methoxynonyl)-1,6-dideoxygalactonojirimycin], the IC50 [1] is reported as 0.256 mM, the IC50 [2] is reported as greater than 1.05 mM and the IC50 (Rat intestinal sucrase) is reported as greater than 1.05 mM. It also gave an IC50 (Mouse ER α-glucosidase I) greater than 1.05 mM, an IC50 [3] of 0.0883 mM and an IC50 (Rat intestinal maltase) greater than 1.05 mM. The IC50 [4] was greater than 1.05 mM and the IC50 [5] was greater than 1.05 mM.
